Where a SMILES comes first, the peptide text is derived from it.
Tests used:
[1] = biological target: Growth hormone secretagogue receptor type 1 (Homo sapiens, UniProt Q92847)
[2] = biological target: T1, Alpha-1A adrenergic receptor (Homo sapiens, UniProt P35348); type: functional, cell-based
T1 sequence (P35348 whole entry): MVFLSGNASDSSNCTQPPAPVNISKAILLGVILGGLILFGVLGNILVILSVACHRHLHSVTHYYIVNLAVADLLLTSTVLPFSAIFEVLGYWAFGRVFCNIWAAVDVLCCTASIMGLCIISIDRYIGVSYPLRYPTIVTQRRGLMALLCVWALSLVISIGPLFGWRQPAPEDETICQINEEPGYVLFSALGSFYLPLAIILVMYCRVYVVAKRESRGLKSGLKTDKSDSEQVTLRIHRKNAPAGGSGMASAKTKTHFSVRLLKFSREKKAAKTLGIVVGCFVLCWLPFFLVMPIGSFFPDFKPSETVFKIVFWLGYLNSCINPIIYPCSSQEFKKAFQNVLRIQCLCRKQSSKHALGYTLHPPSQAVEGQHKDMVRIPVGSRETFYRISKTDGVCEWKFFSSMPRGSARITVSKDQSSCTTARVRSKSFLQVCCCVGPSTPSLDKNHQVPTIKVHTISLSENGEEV

[3] = biological target: T2, Alpha-2A adrenergic receptor (Homo sapiens, UniProt P08913); type: functional, cell-based
T2 sequence (P08913 whole entry): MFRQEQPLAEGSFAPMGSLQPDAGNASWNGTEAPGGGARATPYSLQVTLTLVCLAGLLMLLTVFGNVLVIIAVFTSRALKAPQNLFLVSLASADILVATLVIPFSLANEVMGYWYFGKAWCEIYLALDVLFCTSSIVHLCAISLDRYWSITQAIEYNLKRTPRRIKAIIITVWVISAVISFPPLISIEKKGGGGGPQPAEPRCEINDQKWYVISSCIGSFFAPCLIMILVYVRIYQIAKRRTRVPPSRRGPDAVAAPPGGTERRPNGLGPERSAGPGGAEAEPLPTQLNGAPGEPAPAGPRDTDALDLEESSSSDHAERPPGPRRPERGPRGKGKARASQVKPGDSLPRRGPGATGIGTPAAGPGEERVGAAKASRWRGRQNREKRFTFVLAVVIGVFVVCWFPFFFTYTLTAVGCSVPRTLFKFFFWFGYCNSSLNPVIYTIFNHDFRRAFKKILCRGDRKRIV

[4] = biological target: 5-hydroxytryptamine receptor 2B (Homo sapiens, UniProt P41595); type: functional, cell-based
Adenosine receptor A1 = biological target: T3, Adenosine receptor A1 (Homo sapiens, UniProt P30542)
T3 sequence (P30542 whole entry): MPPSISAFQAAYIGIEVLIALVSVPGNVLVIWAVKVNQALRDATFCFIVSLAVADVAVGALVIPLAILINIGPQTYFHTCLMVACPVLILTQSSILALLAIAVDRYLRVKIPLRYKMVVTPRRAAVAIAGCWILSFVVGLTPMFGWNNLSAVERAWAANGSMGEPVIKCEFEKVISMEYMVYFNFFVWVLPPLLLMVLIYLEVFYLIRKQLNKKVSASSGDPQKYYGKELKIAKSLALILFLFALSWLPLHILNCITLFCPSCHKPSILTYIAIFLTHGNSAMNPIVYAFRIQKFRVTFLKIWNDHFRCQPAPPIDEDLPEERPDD

[5] = biological target: cGMP-inhibited 3',5'-cyclic phosphodiesterase 3A (Homo sapiens, UniProt Q14432); type: functional
Cannabinoid receptor 1 = Cannabinoid receptor 1 (Homo sapiens, UniProt P21554); type: functional, cell-based
Histamine H2 receptor = Histamine H2 receptor (Homo sapiens, UniProt P25021); type: functional, cell-based
[6] = biological target: Voltage-dependent L-type calcium channel subunit alpha-1C (Rattus norvegicus, UniProt P22002); type: functional
[7] = biological target: Neuronal acetylcholine receptor subunit alpha-4 (Homo sapiens, UniProt P43681)
[8] = biological target: T4, Amine oxidase [flavin-containing] A (Homo sapiens, UniProt P21397); type: functional
T4 sequence (P21397 whole entry): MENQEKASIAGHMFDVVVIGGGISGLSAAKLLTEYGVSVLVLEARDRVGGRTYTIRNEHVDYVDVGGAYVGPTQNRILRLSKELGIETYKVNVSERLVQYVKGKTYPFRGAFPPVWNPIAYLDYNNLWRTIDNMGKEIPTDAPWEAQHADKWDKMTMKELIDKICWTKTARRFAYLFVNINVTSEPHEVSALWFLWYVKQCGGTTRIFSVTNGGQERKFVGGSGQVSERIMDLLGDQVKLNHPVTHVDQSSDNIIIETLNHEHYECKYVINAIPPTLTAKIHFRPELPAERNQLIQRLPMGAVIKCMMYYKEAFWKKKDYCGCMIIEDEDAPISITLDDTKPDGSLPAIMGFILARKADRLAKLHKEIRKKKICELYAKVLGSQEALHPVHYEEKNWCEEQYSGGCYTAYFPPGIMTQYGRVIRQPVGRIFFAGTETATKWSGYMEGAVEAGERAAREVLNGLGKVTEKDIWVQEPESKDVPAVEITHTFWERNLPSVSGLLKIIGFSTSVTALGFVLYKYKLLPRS

[9] = biological target: Sodium-dependent dopamine transporter (Homo sapiens, UniProt Q01959)
[10] = biological target: T5, 5-hydroxytryptamine receptor 2C (Homo sapiens, UniProt P28335)
T5 sequence (P28335 whole entry): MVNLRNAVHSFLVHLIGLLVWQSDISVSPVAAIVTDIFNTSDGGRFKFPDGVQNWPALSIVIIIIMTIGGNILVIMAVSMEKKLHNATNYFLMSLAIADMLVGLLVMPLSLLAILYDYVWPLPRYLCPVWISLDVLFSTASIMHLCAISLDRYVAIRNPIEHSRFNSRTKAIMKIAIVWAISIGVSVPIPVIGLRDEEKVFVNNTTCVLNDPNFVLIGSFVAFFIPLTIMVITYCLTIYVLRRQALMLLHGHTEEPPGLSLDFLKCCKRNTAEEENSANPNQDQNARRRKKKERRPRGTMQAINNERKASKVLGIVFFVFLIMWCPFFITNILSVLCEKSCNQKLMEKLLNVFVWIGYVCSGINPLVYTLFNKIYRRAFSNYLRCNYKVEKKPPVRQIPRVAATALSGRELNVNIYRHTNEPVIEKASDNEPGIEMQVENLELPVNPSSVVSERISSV
Also: assay procedure not described here.

Chain of Sodium-dependent dopamine transporter (Q01959 whole entry): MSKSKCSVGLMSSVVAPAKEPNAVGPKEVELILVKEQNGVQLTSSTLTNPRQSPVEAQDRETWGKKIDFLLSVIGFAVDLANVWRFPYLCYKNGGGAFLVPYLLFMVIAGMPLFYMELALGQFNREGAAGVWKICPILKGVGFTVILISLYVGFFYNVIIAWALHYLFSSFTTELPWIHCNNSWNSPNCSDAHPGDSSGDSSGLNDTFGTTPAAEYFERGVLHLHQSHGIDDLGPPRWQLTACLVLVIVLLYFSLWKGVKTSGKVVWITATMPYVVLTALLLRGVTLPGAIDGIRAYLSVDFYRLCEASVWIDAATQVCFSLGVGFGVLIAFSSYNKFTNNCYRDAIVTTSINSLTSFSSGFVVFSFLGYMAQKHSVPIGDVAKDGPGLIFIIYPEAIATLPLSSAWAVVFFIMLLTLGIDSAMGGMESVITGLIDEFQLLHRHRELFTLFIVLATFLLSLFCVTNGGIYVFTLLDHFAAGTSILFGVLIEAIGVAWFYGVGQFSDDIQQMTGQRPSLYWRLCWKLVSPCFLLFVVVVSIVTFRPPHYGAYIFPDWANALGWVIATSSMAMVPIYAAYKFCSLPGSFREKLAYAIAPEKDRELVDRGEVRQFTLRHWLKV
Chain of Growth hormone secretagogue receptor type 1 (Q92847 whole entry): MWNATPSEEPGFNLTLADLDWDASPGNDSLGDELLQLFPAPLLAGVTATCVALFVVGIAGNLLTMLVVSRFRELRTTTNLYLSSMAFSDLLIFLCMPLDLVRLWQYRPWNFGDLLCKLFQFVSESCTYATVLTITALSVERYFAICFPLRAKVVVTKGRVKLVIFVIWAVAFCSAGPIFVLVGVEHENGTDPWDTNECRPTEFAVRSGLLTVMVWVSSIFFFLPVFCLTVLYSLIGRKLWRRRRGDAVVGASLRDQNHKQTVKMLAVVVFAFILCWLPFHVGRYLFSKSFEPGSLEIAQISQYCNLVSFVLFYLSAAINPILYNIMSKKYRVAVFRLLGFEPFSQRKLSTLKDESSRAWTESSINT
Chain of Histamine H2 receptor (P25021 whole entry): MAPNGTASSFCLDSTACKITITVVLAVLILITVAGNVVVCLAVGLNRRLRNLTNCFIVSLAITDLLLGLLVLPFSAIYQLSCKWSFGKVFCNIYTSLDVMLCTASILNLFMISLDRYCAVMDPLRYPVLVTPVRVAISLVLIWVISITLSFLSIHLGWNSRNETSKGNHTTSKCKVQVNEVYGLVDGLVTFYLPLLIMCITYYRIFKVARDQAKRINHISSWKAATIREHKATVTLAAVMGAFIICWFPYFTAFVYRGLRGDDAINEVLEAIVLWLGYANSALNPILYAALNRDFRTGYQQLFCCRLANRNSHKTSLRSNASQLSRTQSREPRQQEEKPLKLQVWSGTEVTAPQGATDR
Chain of 5-hydroxytryptamine receptor 2B (P41595 whole entry): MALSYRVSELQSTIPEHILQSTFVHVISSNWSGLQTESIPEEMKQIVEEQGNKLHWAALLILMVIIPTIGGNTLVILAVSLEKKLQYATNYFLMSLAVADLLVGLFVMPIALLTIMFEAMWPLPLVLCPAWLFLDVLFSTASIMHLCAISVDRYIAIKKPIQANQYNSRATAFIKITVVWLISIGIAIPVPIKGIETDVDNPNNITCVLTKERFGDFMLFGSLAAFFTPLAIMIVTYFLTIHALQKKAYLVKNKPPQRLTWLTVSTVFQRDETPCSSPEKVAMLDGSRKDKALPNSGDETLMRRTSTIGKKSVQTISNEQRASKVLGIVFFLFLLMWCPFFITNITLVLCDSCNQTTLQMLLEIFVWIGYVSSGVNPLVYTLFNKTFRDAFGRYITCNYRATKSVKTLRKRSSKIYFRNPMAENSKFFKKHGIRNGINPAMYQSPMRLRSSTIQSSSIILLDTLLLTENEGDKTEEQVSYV
Chain of Voltage-dependent L-type calcium channel subunit alpha-1C (P22002 whole entry): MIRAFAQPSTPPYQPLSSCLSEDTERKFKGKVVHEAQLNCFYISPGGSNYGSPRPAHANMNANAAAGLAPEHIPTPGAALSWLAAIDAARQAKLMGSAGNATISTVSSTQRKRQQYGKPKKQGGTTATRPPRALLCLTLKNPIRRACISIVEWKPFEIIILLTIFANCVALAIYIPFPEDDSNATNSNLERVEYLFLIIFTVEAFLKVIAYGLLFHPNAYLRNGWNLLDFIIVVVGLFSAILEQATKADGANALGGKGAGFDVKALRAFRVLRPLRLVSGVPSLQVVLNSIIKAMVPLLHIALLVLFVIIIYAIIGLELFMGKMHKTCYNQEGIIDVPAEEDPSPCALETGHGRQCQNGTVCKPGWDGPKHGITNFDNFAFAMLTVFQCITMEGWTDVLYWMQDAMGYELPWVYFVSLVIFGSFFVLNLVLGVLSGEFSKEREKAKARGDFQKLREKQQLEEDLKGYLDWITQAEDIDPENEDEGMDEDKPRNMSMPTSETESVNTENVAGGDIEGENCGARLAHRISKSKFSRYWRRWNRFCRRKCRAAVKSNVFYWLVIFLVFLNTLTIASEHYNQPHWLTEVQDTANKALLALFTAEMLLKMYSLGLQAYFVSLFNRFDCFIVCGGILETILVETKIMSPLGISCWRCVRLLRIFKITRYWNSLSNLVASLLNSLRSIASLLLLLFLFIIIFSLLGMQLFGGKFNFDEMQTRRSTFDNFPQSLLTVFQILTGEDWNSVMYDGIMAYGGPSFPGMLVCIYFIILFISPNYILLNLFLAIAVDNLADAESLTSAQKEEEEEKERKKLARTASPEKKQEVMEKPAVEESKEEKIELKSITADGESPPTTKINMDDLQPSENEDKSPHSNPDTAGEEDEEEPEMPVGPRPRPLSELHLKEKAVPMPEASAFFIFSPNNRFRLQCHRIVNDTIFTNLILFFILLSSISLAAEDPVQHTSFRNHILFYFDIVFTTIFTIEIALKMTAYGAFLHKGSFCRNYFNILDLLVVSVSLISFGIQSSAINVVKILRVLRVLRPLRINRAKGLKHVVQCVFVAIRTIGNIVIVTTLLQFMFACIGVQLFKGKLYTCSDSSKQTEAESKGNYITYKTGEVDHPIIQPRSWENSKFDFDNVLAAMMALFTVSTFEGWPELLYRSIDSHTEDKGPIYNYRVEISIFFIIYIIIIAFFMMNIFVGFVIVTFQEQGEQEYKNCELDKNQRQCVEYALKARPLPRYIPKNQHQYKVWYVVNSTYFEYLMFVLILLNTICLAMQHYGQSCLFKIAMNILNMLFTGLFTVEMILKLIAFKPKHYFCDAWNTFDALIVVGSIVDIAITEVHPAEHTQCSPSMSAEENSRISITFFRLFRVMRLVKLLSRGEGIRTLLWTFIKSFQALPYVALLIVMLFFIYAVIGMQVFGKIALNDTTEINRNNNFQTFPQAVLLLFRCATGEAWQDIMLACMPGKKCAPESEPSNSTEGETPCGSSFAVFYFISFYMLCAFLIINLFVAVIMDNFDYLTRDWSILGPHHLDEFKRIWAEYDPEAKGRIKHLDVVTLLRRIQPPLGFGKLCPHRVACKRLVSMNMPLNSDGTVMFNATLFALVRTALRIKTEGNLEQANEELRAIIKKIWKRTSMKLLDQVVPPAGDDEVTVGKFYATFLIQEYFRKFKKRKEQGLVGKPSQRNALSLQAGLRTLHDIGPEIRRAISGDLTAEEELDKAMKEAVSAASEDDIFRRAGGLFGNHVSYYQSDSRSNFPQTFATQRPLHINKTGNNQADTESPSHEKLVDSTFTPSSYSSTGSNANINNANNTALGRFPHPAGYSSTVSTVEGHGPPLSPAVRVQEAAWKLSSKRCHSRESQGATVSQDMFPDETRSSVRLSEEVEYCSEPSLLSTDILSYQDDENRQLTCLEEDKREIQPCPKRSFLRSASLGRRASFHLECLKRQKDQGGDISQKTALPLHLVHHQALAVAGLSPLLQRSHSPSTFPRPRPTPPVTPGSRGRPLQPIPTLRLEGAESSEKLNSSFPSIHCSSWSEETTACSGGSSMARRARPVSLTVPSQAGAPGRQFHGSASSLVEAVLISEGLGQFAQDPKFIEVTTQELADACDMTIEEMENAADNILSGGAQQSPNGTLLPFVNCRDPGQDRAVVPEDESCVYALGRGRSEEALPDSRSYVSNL
Chain of Cannabinoid receptor 1 (P21554 whole entry): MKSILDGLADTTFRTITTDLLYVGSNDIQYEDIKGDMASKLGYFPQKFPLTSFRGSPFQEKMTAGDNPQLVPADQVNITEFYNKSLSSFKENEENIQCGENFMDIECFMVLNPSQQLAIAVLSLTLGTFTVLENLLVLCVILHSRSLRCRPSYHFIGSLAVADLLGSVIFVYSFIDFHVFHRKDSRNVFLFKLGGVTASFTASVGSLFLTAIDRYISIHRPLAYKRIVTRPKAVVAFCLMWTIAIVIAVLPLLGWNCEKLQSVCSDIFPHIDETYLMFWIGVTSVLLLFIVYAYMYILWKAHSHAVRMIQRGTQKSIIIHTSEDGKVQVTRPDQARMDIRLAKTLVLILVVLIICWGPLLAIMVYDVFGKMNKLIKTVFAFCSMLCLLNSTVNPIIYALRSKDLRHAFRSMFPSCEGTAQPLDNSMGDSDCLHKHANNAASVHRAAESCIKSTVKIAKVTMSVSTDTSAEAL

Molecule	AC50 [1] [µM]	AC50 [2] [µM]	AC50 [3] [µM]	AC50 [4] [µM]	AC50 (Adenosine receptor A1) [µM]	AC50 [5] [µM]	AC50 (Cannabinoid receptor 1) [µM]	AC50 (Histamine H2 receptor) [µM]	AC50 [6] [µM]	AC50 [7] [µM]	AC50 [8] [µM]	AC50 [9] [µM]	AC50 [10] [µM]
C[C@H](N)C(=O)N[C@@H](CCC(N)=O)C(=O)O [ALANYL GLUTAMINE] (H-Ala-Gln-OH)	> 30	> 30	> 30	> 30	> 30	> 30	> 30	> 30	> 30	> 30	15	> 30	> 30
COc1cc(N)cn[n+]1-c1ccccc1 [AMEZINIUM METILSULFATE]	> 30	> 30	> 30	> 30	> 30	> 30	> 30	> 30	> 30	> 10	11	5.7	> 30
CNCCc1ccccn1 [BETAHISTINE]	> 30	> 30	> 30	> 30	> 30	> 30	> 30	> 30	> 30	> 30	> 30	> 30	> 30
CCCCOC(=O)c1ccc(N)cc1 [BUTAMBEN]	> 30	> 30	> 30	> 30	> 30	> 30	> 30	> 30	> 30	> 30	> 30	> 30	> 30
CO/N=C(\C(=O)N[C@@H]1C(=O)N2C(C(=O)O)=C(CSc3nc(C)c(CC(=O)O)s3)CS[C@H]12)c1csc(N)n1 [CEFODIZIME]	> 30	> 30	> 30	> 30	> 30	> 30	> 30	> 30	> 30	> 30	> 30	> 30	> 30
CO/N=C(\C(=O)N[C@@H]1C(=O)N2C(C(=O)[O-])=C(C[n+]3ccc(N)n3CCO)CS[C@H]12)c1csc(N)n1 [CEFOSELIS]	> 30	> 30	> 30	> 30	> 30	> 30	> 30	> 30	> 30	> 30	> 30	> 30	> 30
CCCO[C@H]1[C@@H]([C@@H](COCc2ccc(Cl)cc2)OCc2ccc(Cl)cc2)OC(OCC)[C@@H]1O (some centres not stated) [CLOBENOSIDE]	> 30	> 30	> 30	> 30	> 30	> 30	> 30	> 30	> 30	> 30	> 30	> 30	> 30
CC(=O)Oc1cccc2c1C(=O)c1c(OC(C)=O)cc(C(=O)O)cc1C2=O [DIACEREIN]	> 30	21	12	> 10	24	> 30	> 30	> 30	> 30	27	> 30	> 30	> 30
Cc1ccc(S(=O)(=O)NC(=O)N[C@H]2[C@H]3CC[C@@](C)([C@H]2O)C3(C)C)cc1 [GLIBORNURIDE]	> 30	> 30	> 30	> 30	> 30	> 30	> 30	> 30	> 30	> 30	> 30	> 30	> 30
CCN(CC)Cc1nccn1-c1ccc([N+](=O)[O-])cc1C(=O)c1ccccc1Cl [NIZOFENONE]	> 30	> 30	> 30	> 30	> 30	> 30	> 30	> 30	> 30	8.3	> 30	> 30	> 30
CN1CCCN=C1/C=C/c1cccc(O)c1 [OXANTEL]	> 30	> 30	> 30	> 30	> 30	> 30	> 30	> 30	> 30	7.2	21	> 30	> 30
CC1=C(/C=C/C(C)=C/C=C/C(C)=C/C(=O)Oc2c(C)c(C)c3c(c2C)CCC(C)(CCCC(C)CCCC(C)CCCC(C)C)O3)C(C)(C)CCC1 (configuration not stated) [TRETINOIN TOCOFERIL]	> 30	> 30	> 30	> 30	> 30	> 30	> 30	> 30	> 30	> 30	> 30	> 30	> 30
CN(C)CCOCC(=O)NC12CC3CC(CC(C3)C1)C2 [TROMANTADINE]	> 30	> 30	> 30	> 30	> 30	> 30	> 30	> 30	> 30	> 30	> 30	> 30	> 30
SITOSTEROLS	> 30	> 30	> 30	> 30	> 30	> 10	> 30	> 30	> 30	> 30	> 30	> 30	> 30

Reference: ChEMBL document CHEMBL5291721, “A preclinical secondary pharmacology resource illuminates target-adverse drug reaction associations of marketed drugs” (Nat Commun, 2023)
